{"source": "patent US8815249B2", "about": "(priority 1999, dated 2014)", "key": {"[1]": {"test_system": "HIV gp160(843-855) peptide", "type": "in vivo", "settings": "B10.A (5R) mice, peptides in saline solution, serum day 35", "method": "An ELISA assay for antibody responses following immunization with the experimental peptides indicated above was performed as follows. Fifty microliters (μl) of a solution of the coating peptide at 2 μg/well in 0.1 M carbonate buffer, pH 9.5 was added to each well of a 96-well Nunc-immunoplate (#442404) for an overnight incubation at 4° C. After aspiration, 250 μl of phosphate-buffer saline solution containing 3% fetal bovine serum (assay diluent) was added to each well for 2 hr at RT. After washing three times with assay diluent, 50 μl of 20-times diluted mouse serum in 1:3 serial dilution in assay diluent was added to each well for 2 hr at RT. After washing three times with assay diluent, 50 μl of 1 ÿg/ml biotinylated goat anti-mouse IgG1 or IgG2a was added to each well and incubated for 1 hr at RT. After washing three times with assay diluent, 50 μl of streptavidin-horse radish peroxidase conjugate (1:1000) was added to each well and incubated for 30 min at RT. After washing three times with assay diluent, 100 μl of tetramethylbenzidine/H2O2 solution (Pharmingen 264KK) was added to each well for 15 min in the dark at room temperature. The reaction was stopped with 100 μl 1N H2SO4 in each well and the absorbance was read immediately at 450 nm.\nB10.A (5R) mice (H-2^k/b) were immunized with 20 nmole of peptides in 50 μl phosphate-buffered saline solution, intramuscularly in right and left rear legs on days 1 and 2, respectively. On day 14 the mice were boosted intramuscularly with 40 nmole of peptides in 200 μl Hank's balanced salts solution intramuscularly in a rear leg. On day 30 the mice were boosted intravenously with 40 nmole peptides dissolved in Hank's balanced salts solution (HBSS). On day 35 the mice were sacrificed and serum samples were assayed for antibody titers against the HIV gp160(843-855) peptide."}, "[2]": {"test_system": "splenic T cells", "parameters": "species or system B10(A) 5R mice", "settings": "mouse, in vivo"}, "[3]": {"test_system": "splenic T cells", "type": "in vivo", "settings": "C3H/HeJ mice, spleen cells day 35 re-stimulated with HIV gp160(843-855) peptide, triplicate wells", "method": "An ELISPOT assay for IFN-γ cytokine responses was performed in order to titer more exactly splenic T lymphocyte subset responses to immunization with Ii-Key-ava-gp160(843-855) or gp160(843-855). The assay was performed as follows. A solution of the cytokine-specific capture antibody (100 μl at 6 μg/ml in phosphate-buffered saline solution, pH 7.2) was added to each well of a 96-well Immunospot plate (M200) for an overnight incubation at 4° C. After aspiration, phosphate-buffer saline solution 200 μl containing 10% fetal bovine serum and 1% penicillin-streptomycin-glutamine (mouse medium) was added to each well for 2 hr at RT. After washing four times with 1% Tween-20 in phosphate-buffered saline solution (wash buffer I), 100 μl of single cell suspensions from the spleens of immunized mice at 10^6 cells/well were re-stimulated with 100 μl of peptide-epitope at 5 μg/well in mouse medium and incubated for 20-40 hr at 37° C., 5% CO2. After washing twice with phosphate-buffered saline solution (wash buffer II) and four times with wash buffer I, 100 μl of 2 ÿg/ml biotinylated anti-mouse IFN-γ in 1× phosphate buffer saline with 10% fetal bovine serum (dilution buffer) was added to each well for 2 hr at RT. After washing five times with wash buffer I, 100 il of streptavidin-horse radish peroxidase conjugate (1:500) in dilution buffer was added to each well for 1 hr at RT. After washing four times with wash buffer I and two times with wash buffer II, 100 μl of the 3-amino-9-ethylcarbazole/H2O2 substrate (Pharmingen 551951) was added and incubated for 30-60 min in the dark at RT. The reaction was stopped by washing three times with 200 μl of deionized water. ELISPOT data analysis was performed by using the Immunospot 1.7e software ([…]). […] Additional counting parameters for spot size and circularity were applied to gate out speckles caused by non-specific antibody binding. Each spot represents a single cell secreting IFN-γ.\nC3H/HeJ(H-2^k) mice were immunized with 40 nmole of peptides (50 μl) emulsified with equal volume of incomplete Freund's adjuvant (IFA), subcutaneously at the base of the tail. On day 13 the mice were boosted subcutaneously at the base of the tail with 40 nmole of peptides (50 μl) emulsified with equal amount of incomplete Freund's adjuvant (IFA). On day 31, the mice were boosted intravenously with 40 nmole peptides dissolved in 100 μl Hank's balanced salts solution (HBSS). On day 35, the mice were sacrificed and single cell suspensions from spleens were assayed for IFN-γ responses to HIV gp160(843-855) peptide.\nNumber is the mean number of spots (and standard deviation) in triplicate wells and Size is the mean spot size in mm^2 (and standard deviation). Ii-Key/gp160(844-855) has one ava spacer (Ii-key-ava-gp160(844-855))."}, "[4]": {"test_system": "PGCC(95-104) epitope peptide", "parameters": "species or system C3H/HeJ mice", "settings": "mouse, in vivo"}, "[5]": {"test_system": "total splenic cells from DR4-IE Tg mice", "assay": "IFN-γ ELISPOT recall response, total splenic cells, Ii-Key/gp100 hybrids", "type": "in vivo", "settings": "specificity control", "source_text": "Immunizations. DR4-IE Tg mice were immunized subcutaneously at the base of the tail with 40 nmole or 60 nmole of Ii-Key/gp100 MHC class II hybrid or epitope-only peptides, dissolved in saline and emulsified with an equal volume of either IFA or CFA. The synthetic phosphorothioate-modified CpG ODN 1826, 5′ TCC […] CTG ACGTT 3′ (SEQ ID NO.: 906) immunostimulatory nucleotide (CpG motif underlined) was purchased from Oligos Etc. (Wilsonville, Oreg.). DR4-IE Tg mice were vaccinated s.c. with 60 nmole of designated immunogen in an emulsion with IFA and 60 μg CpG. […]\nELISPOT assays. […] Digitalized images of spots were analyzed with a Series 1 Immunospot Analyzer and Immunospot 1.7e software (Cellular Technology Limited, Cleveland, Ohio). Criteria for spot size, circularity and color density were determined by comparing control and experimental wells. […] Only areas meeting the specified criteria were counted as spots. Mean and standard deviations were calculated for all assays. […]\nStructure-activity rules identified in study. The stimulation of splenic mononuclear lymphocytes from HLA-DR4-IE Tg mice immunized with, respectively, with each of the peptides of Table 1.2 with complete Freund's adjuvant (CFA), was determined in an ELISPOT assay for IFN-γ, IL-4 and IL-2. […]"}, "[6]": {"test_system": "tumor cells expressing CEA", "settings": "cited from earlier work"}, "[7]": {"test_system": "HLA alleles of the A2 supertype (A2.2, A2.3, A2.6 and A6802)", "settings": "cited from earlier work"}, "[8]": {"test_system": "MHC Class II molecules", "settings": "cited from earlier work"}, "[9]": {"test_system": "purified splenic CD4+ Th cells", "parameters": "species or system DR4-IE Tg mice", "settings": "mouse, in vivo, sc"}}, "note": "“Also recorded” adds a separate entry of the source. Where two headings read alike, the source gives them in different places. Non-standard residues stand in square brackets, D forms with d. Ava = NCCCCC(=O)O", "data": [{"substance": "Ac-LRMK-AYRAIRHIPR-NH2 (Ac-LRMKAYRAIRHIPR-NH2) [gp160(843-855)]", "values": [{"measurement": "Antibody induction, ELISA against HIV gp160(843-855) peptide", "setting": "[1]; Dilution^−1 20", "value": 0.052}, {"measurement": "Antibody induction, ELISA against HIV gp160(843-855) peptide", "setting": "[1]; Dilution^−1 60", "value": 0.023}, {"measurement": "Antibody induction, ELISA against HIV gp160(843-855) peptide", "setting": "[1]; Dilution^−1 180", "value": 0.000}, {"measurement": "Antibody induction, ELISA against HIV gp160(843-855) peptide", "setting": "[1]; Dilution^−1 540", "value": "−0.005"}, {"measurement": "Percentage of cells CD3^+/IFN-γ^+", "setting": "[2]", "value": 2.05, "unit": "%"}, {"measurement": "Percentage of cells CD4^+", "setting": "[2]", "value": 31.03, "unit": "%"}, {"measurement": "Percentage of cells CD4^+/IFN-γ^+", "setting": "[2]", "value": 0.94, "unit": "%"}, {"measurement": "Number (mean number of IFN-γ ELISPOT spots and standard deviation)", "setting": "[3]", "value": "5 (+/−3.6)"}, {"measurement": "Size (mean spot size and standard deviation)", "setting": "[3]", "value": "0.019 (+/−0.01) mm^2"}]}, {"substance": "Ac-LRMK-ava-IAYLKQATAK-NH2 (Ac-LRMK[Ava]IAYLKQATAK-NH2; SMILES CC[C@H](C)[C@H](NC(=O)CCCCNC(=O)[C@H](CCCCN)NC(=O)[C@H](CCSC)NC(=O)[C@H](CCCNC(=N)N)NC(=O)[C@H](CC(C)C)NC(C)=O)C(=O)N[C@@H](C)C(=O)N[C@@H](Cc1ccc(O)cc1)C(=O)N[C@@H](CC(C)C)C(=O)N[C@@H](CCCCN)C(=O)N[C@@H](CCC(N)=O)C(=O)N[C@@H](C)C(=O)N[C@H](C(=O)N[C@@H](C)C(=O)N[C@@H](CCCCN)C(N)=O)[C@@H](C)O) [Ii-Key/PGCC]", "values": [{"measurement": "antibody titers against PGCC epitope", "setting": "[4]", "value": "Significantly greater antibody titers"}]}, {"substance": "Ac-LRMK-ava-YRAIRHIPR-NH2 (Ac-LRMK[Ava]YRAIRHIPR-NH2; SMILES CC[C@H](C)[C@H](NC(=O)[C@H](C)NC(=O)[C@H](CCCNC(=N)N)NC(=O)[C@H](Cc1ccc(O)cc1)NC(=O)CCCCNC(=O)[C@H](CCCCN)NC(=O)[C@H](CCSC)NC(=O)[C@H](CCCNC(=N)N)NC(=O)[C@H](CC(C)C)NC(C)=O)C(=O)N[C@@H](CCCNC(=N)N)C(=O)N[C@@H](Cc1c[nH]cn1)C(=O)N[C@H](C(=O)N1CCC[C@H]1C(=O)N[C@@H](CCCNC(=N)N)C(N)=O)[C@@H](C)CC) [Ii-Key/one-ava/gp160(844-855)]", "values": [{"measurement": "Number (mean number of IFN-γ ELISPOT spots and standard deviation)", "setting": "[3]", "value": "59 (+/−5)"}, {"measurement": "Size (mean spot size and standard deviation)", "setting": "[3]", "value": "0.028 (+/−0.006) mm^2"}]}, {"substance": "GVGSPYVSRLLGICL [HER-2/neu (776-790) epitope]", "values": [{"measurement": "spots on in vitro stimulation with non-specific DR4 restricted epitope", "setting": "[5]; immunization in CFA", "value": "Less than 10 spots/well"}, {"measurement": "spots on stimulation with non-specific HLA-DR4-restricted epitope", "setting": "[5]; b664 CFA, b669 CpG in IFA", "value": "non-significant immune response; also recorded: three to six spots"}]}, {"substance": "HLFYSWYK [9.5.6]", "values": [{"measurement": "CTL induction", "setting": "[6]", "value": "elicited CTL lines that lysed tumor cells"}]}, {"substance": "LMTFWNPPV [9.5.2]", "values": [{"measurement": "binding to HLA alleles of the A2 supertype", "setting": "[7]", "value": "bound tightly"}, {"measurement": "CTL induction", "setting": "[6]", "value": "induced vigorous anti-tumor CTL responses"}]}, {"substance": "LRMK", "values": [{"measurement": "activity of Ii-Key peptides in presentation of antigenic peptides", "setting": "[8]", "value": "half-maximal activity"}]}, {"substance": "LRMKLPK (printed: Leu-Arg-Met-Lys-Leu-Pro-Lys)", "values": [{"measurement": "activity of Ii-Key peptides in presentation of antigenic peptides", "setting": "[8]", "value": "significantly greater activity"}]}, {"substance": "LRMKLPKPPKPVSQMR [Ii(77-92)]", "values": [{"measurement": "activity of Ii-Key peptides in presentation of antigenic peptides", "setting": "[8]", "value": "enhanced presentation of antigenic peptides"}]}, {"substance": "QYSWFVNGTF [9.5.4]", "values": [{"measurement": "CTL induction", "setting": "[6]", "value": "elicited CTL lines that lysed tumor cells"}]}, {"substance": "RQLYPEWTEAQRL [Peptide A]", "values": [{"measurement": "IFN-γ spots", "setting": "[9]", "value": 491, "unit": "spots"}]}]}
